Where two headings read alike, the source gives them in different places.
What was measured:
[1] = target: T1, purified catalytic domain of recombinant human TACE (rhTACEc) (Homo sapiens, UniProt P78536, N452Q/S266A); experiment: TACE kinetic assay: cleavage of internally quenched peptide substrate TNF-FRET 2 (Ki); type: biochemical; details: TNF-FRET 2 substrate
T1 construct: 6xHis (C); made in house; host or cells: baculovirus/Hi5 insect cells

[2] = system: TNF-α production from human whole blood; experiment: Inhibition of TNF-α production from human whole blood (hWBA), LPS stimulated, ELISA; type: cell-based; details: Homo sapiens, 3.5 h, human whole blood diluted 1:1, LPS stimulated, 3.5 h, TNF-α by ELISA; read-out: hWBA (IC50)
[3] = Area under the curve determinations of plasma levels in rats (rrAUC), oral 10 mg/kg; type: in vivo; details: rat, plasma 0.5-6 h post-dosing, read-out: RR AUC (rapid rat AUC, rrAUC)

T1 sequence (P78536 215-477 S266A/N452Q): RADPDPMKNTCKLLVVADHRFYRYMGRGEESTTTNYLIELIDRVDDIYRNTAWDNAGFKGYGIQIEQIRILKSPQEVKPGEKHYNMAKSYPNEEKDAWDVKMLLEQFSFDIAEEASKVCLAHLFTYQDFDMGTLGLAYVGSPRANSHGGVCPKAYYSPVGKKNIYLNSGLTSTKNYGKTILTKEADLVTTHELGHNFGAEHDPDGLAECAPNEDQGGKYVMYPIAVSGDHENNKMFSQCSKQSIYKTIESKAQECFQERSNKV

Compound	Ki ([1]; read-out: Ki) [µM]	IC50 [2] [µM]	AUC [3] [nM·h]	Ki ([1]; Ki) [µM]
CCN1CCN(c2ccc3oc([C@]4(CN5Cc6ccc(OC)cc6C5=O)NC(=O)NC4=O)cc3n2)CC1 [Compound 2123]	0.000807	0.136	727	
CC[C@@H]1CN(c2ccc3oc([C@]4(CN5Cc6ccc(OC)cc6C5=O)NC(=O)NC4=O)cc3n2)CCN1 [Compound 2124]	0.00109	0.27	14	
COc1ccc2c(c1F)C(=O)N(C[C@@]1(c3cc4nc(N5CCN(C)CC5)ccc4o3)NC(=O)NC1=O)C2 [Compound 2125]	0.0005	0.144	1520	
COc1ccc2c(c1)C(=O)N(C[C@@]1(c3cc4nc(Nc5cnccn5)ccc4o3)NC(=O)NC1=O)C2 [Compound 2129]	0.000395	0.75	1330	
COc1ccc2c(c1)C(=O)N(C[C@@]1(c3cc4nc(Nc5cccnc5)ccc4o3)NC(=O)NC1=O)C2 [Compound 2130]		0.163	72	0.000629
COc1ccc2c(c1)C(=O)N(C[C@@]1(c3cc4nc(Nc5ccnn5C)ccc4o3)NC(=O)NC1=O)C2 [Compound 2131]	0.000418	0.637	257	
COc1ccc2c(c1)C(=O)N(C[C@@]1(c3cc4nc(Nc5onc(C)c5C)ccc4o3)NC(=O)NC1=O)C2 [Compound 2132]		3.13	145	0.000593
COc1ccc2c(c1)C(=O)N(C[C@@]1(c3cc4nc(NC(=O)c5ccncc5)ccc4o3)NC(=O)NC1=O)C2 [Compound 2135]	0.0012	2.78	560	
COc1ccc2c(c1)C(=O)N(C[C@@]1(c3cc4nc(NC5CCN(C)CC5)ccc4o3)NC(=O)NC1=O)C2 [Compound 2141]	0.000599	0.381	2710	
COc1ccc2c(c1)C(=O)N(C[C@@]1(c3cc4nc(N5CCN(CCN(C)C)CC5)ccc4o3)NC(=O)NC1=O)C2 [Compound 2142]	0.000875	0.463	60	
COc1ccc2c(c1)C(=O)N(C[C@@]1(c3cc4nc(N(c5cccnc5)C5CCNCC5)ccc4o3)NC(=O)NC1=O)C2 [Compound 2145]		0.174	86	0.000547
COc1ccc2c(c1F)C(=O)N(C[C@@]1(c3cc4nc(N5CCCNC5=O)ccc4o3)NC(=O)NC1=O)C2 [Compound 2146]	0.000974	0.507	522	
COc1ccc2c(c1)C(=O)N(C[C@@]1(c3cc4nc(-c5cncnc5)ccc4o3)NC(=O)NC1=O)C2 [Compound 2147]	0.000299	1.08	2190	
COc1ccc2c(c1)C(=O)N(C[C@@]1(c3cc4nc(NC5CC5)ccc4o3)NC(=O)NC1=O)C2 [Compound 2148]	0.000179	0.624	9340	
COc1ccc2c(c1Cl)C(=O)N(C[C@@]1(c3cc4ncccc4o3)NC(=O)NC1=O)C2 [Compound 2153]	0.0011	2.65	1760	
COc1ccc2c(c1)C(=O)N(C[C@@]1(c3cc4nc(N5C[C@@H](O)CC5=O)ccc4o3)NC(=O)NC1=O)C2 [Compound 2154]	0.000645	0.125	393	
COc1ccc2c(c1)C(=O)N(C[C@@]1(c3cc4nc(N5C(=O)CC[C@H]5CO)ccc4o3)NC(=O)NC1=O)C2 [Compound 2156]	0.000976	0.325	33	

Compound	Ki ([1]; read-out: Ki) [µM]	IC50 [2] [µM]	AUC [3] [nM·h]	Ki ([1]; Ki) [µM]
COc1ccc2c(c1)C(=O)N(C[C@@]1(c3cc4nc(N5C[C@H](O)CC5=O)ccc4o3)NC(=O)NC1=O)C2 [Compound 2158]	0.000545	0.18	1190	
COc1ccc2c(c1)C(=O)N(C[C@@]1(c3cc4nc(N5CC[C@H](O)C5=O)ccc4o3)NC(=O)NC1=O)C2 [Compound 2159]	0.000935	0.331	527	
COc1ccc2c(c1)C(=O)N(C[C@@]1(c3cc4nc(N5C(=O)CCC5C)ccc4o3)NC(=O)NC1=O)C2 (stereo partly drawn) [Compound 2161]	0.00054	0.186	4790	
COc1ccc2c(c1)C(=O)N(C[C@@]1(c3cc4nc(N5CCOCC5)ccc4o3)NC(=O)NC1=O)C2 [Compound 2163]	0.000563	1.12	3640	
COc1ccc2c(c1)C(=O)N(C[C@@]1(c3cc4nc(-n5ccnc5)ccc4o3)NC(=O)NC1=O)C2 [Compound 2164]	0.000557	0.168	534	
COc1ccc2c(c1)C(=O)N(C[C@@]1(c3cc4nc(-n5cccn5)ccc4o3)NC(=O)NC1=O)C2 [Compound 2165]		1.37	21000	0.000405
COc1ccc2c(c1)C(=O)N(C[C@@]1(c3cc4nc(N5CC[C@@H](O)C5)ccc4o3)NC(=O)NC1=O)C2 [Compound 2166]	0.000276	0.141	600	
COc1ccc2c(c1)C(=O)N(C[C@@]1(c3cc4nc(N5CCCCC5)ccc4o3)NC(=O)NC1=O)C2 [Compound 2168]	0.00034	0.885	3530	
COc1ccc2c(c1)C(=O)N(C[C@@]1(c3cc4nc(Nc5ncccn5)ccc4o3)NC(=O)NC1=O)C2 [Compound 2169]	0.000576	0.92	4840	
COc1ccc2c(c1)C(=O)N(C[C@@]1(c3cc4nc(N5CCC[C@@H](O)C5)ccc4o3)NC(=O)NC1=O)C2 [Compound 2170]		0.189	414	0.000415
COc1ccc2c(c1)C(=O)N(C[C@@]1(c3cc4nc(N5CCCC5=O)ccc4o3)NC(=O)NC1=O)C2 [Compound 2171]	0.00067	0.487	9100	
COc1ccc2c(c1)C(=O)N(C[C@@]1(c3cc4nc(N5CCC5=O)ccc4o3)NC(=O)NC1=O)C2 [Compound 2173]	0.000955	0.243	2540	
COc1ccc2c(c1)C(=O)N(C[C@@]1(c3cc4ccc(-c5nnco5)cc4o3)NC(=O)NC1=O)C2 [Compound 2189]		0.672	988	0.000536
COc1ccc2c(c1)C(=O)N(C[C@@]1(c3cc4cc(-c5cccnc5)ccc4o3)NC(=O)NC1=O)C2 [Compound 2195]		2.12	1160	0.000966
CCNC(=O)Nc1ccc2oc([C@]3(CN4Cc5ccc(OC)cc5C4=O)NC(=O)NC3=O)cc2c1 [Compound 2229]		0.457	158	0.000388
COc1ccc2c(c1)C(=O)N(C[C@@]1(c3cc4cnc(-c5ccncc5)cc4o3)NC(=O)NC1=O)C2 [Compound 2231]		1.42	2750	0.00054

Second part, led by results:

Ki ([1]; read-out: Ki) [µM]	IC50 [2] [µM]	AUC [3] [nM·h]	Compound	Ki ([1]; Ki) [µM]
0.000711	0.278	69	COc1ccc2c(c1)C(=O)N(C[C@@]1(c3cc4cc(CNCCN(C)C)ccc4o3)NC(=O)NC1=O)C2 [Compound 2177]	
0.000515	0.958	414	COc1ccc2c(c1)C(=O)N(C[C@@]1(c3cc4ccc(-c5nnc(C)o5)cc4o3)NC(=O)NC1=O)C2 [Compound 2190]	
0.000645	1.54	7060	COc1ccc2c(c1)C(=O)N(C[C@@]1(c3cc4cc(-n5cncn5)ccc4o3)NC(=O)NC1=O)C2 [Compound 2196]	
0.00185	0.217	177	COc1ccc2c(c1)C(=O)N(C[C@@]1(c3cc4cc(C5(C)NC(=O)NC5=O)c(F)cc4o3)NC(=O)NC1=O)C2 (stereo partly drawn) [Compound 2200]	
0.000468	0.2	3920	COc1ccc2c(c1F)C(=O)N(C[C@@]1(c3cc4ncccc4o3)NC(=O)NC1=O)C2 [Compound 2203]	
0.00034	0.115	983	COc1ccc2c(c1F)C(=O)N(C[C@@]1(c3cc4c(C)nccc4o3)NC(=O)NC1=O)C2 [Compound 2204]	
0.000813	0.31	63	COc1ccc2c(c1)C(=O)N(C[C@@]1(c3cc4cc(C5(C)NC(=O)NC5=O)c(C)cc4o3)NC(=O)NC1=O)C2 (stereo partly drawn) [Compound 2207]	
0.000319	0.232	18	CCC1(c2cc(F)c3oc([C@]4(CN5Cc6ccc(OC)cc6C5=O)NC(=O)NC4=O)cc3c2)NC(=O)NC1=O (stereo partly drawn) [Compound 2210]	
0.000274	2.31	195	COc1ccc2c(c1)C(=O)N(C[C@@]1(c3cc4ccccc4o3)NC(=O)NC1=O)C2 [Compound 2214]	
0.000682	1.39	1020	COc1ccc2c(c1)C(=O)N(C[C@@]1(c3cc4cc(-c5cc[nH]n5)ccc4o3)NC(=O)NC1=O)C2 [Compound 2219]	
0.000243	0.722	165	COc1ccc2c(c1)C(=O)N(C[C@@]1(c3cc4cc(-c5csc(N)n5)ccc4o3)NC(=O)NC1=O)C2 [Compound 2220]	
0.000807	0.573	467	COc1ccc2c(c1)C(=O)N(C[C@@]1(c3cc4cc(N)ccc4o3)NC(=O)NC1=O)C2 [Compound 2226]	
0.000478	0.541	57	CNC(=O)Nc1ccc2oc([C@]3(CN4Cc5ccc(OC)cc5C4=O)NC(=O)NC3=O)cc2c1 [Compound 2227]	
0.000839	2.37	129	COc1ccc2c(c1)C(=O)N(C[C@@]1(c3cc4cc(NC(=O)N(C)C)ccc4o3)NC(=O)NC1=O)C2 [Compound 2228]	
0.000538	1.1	2220	COc1ccc2c(c1)C(=O)N(C[C@@]1(c3cc4cnc(-c5cccnc5)cc4o3)NC(=O)NC1=O)C2 [Compound 2232]	
0.000763	0.772	3810	COc1ccc2c(c1)C(=O)N(C[C@@]1(c3cc4cnc(-c5cncnc5)cc4o3)NC(=O)NC1=O)C2 [Compound 2233]	
